Laboratory results published in patent US20060037100A1, “Fungal resistant transgenic pepper plants and their production method” (priority 2004, published 2006).

System: pepper cells
Assay: Hygromycin sensitivity of pepper cells (growth of hypocotyl explants on SIM medium)
Type: cell-based, Capsicum annuum L. (pepper)
Experimental: The sensitivity of untransformed wild type (WT) and transformed (T) hypocotyl explants to hygromycin B was examined by using shoot induction medium containing 0, 5, 10, 20, 50 mg/l of hygromycin B (A). Fresh weight (mg) of hypocotyl explants growing on the medium containing hygromycin B (B).
Selection of transgenic cells was preformed in medium containing 20 mg/l hygromycin B in all experiments.

In the case of `CN[C@H]1C[C@@H](N)[C@H](O)[C@@H](O[C@@H]2O[C@H](CO)[C@H](O)[C@@H]3OC4(O[C@H]23)O[C@H]([C@@H](N)CO)[C@H](O)[C@H](O)[C@H]4O)[C@@H]1O` (some centres unmarked) [hygromycin B], the “effect on the growth of pepper cells” value (hygromycin B 5 mg/l in SIM medium, after 14 days of culture) is reported as “severe inhibitory effect” and the “hygromycin B concentration up to which transgenic cells showed resistance” value (transgenic (transformed) pepper cells on SIM medium) is reported as “up to 50 mg/l”.
